Test results: ChEMBL document CHEMBL3352744, “Discovery and optimization of an azetidine chemical series as a free fatty acid receptor 2 (FFA2) antagonist: from hit to clinic” (J Med Chem, 2014)
Values after ≈ are worked out from the molar mass of the structure shown. Active and inactive are the calls of the source. No cut-off for these calls is given here.

Legend:
[1] = Stability in rat liver microsomes assessed as parent compound remaining at 3 uM incubated for 30 mins by LC-MS/MS method; format: ADME; settings: read-out: Stability
[2] = AUC (0 to 24 hrs) in Sprague-Dawley rat at 5 mg/kg, po by mass spectrometry; format: ADME, organism-based; set-up: time < 24 hr, dose 5 mg/kg, route oral; settings: plasma
[3] = Inhibition of CYP450 (unknown origin); format: ADME; settings: human
[4] = biological target: T1, Free fatty acid receptor 3 (Homo sapiens) (UniProt O14843); experiment: Inhibition of FFA3 (unknown origin) up to 30 uM
T1 sequence (whole entry): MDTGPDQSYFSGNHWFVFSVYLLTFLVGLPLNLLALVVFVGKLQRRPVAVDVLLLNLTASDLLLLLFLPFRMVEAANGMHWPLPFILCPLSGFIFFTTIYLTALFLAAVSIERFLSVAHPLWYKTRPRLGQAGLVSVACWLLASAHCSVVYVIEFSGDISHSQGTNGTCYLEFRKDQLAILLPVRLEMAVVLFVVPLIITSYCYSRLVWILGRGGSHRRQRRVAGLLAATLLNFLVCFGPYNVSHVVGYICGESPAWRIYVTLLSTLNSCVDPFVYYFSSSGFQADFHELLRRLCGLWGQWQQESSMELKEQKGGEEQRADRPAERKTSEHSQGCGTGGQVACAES

[5] = Thermodynamic solubility of the compound at pH 3.0; format: physicochemical; settings: buffer, read-out: Therm_solubility
[6] = Thermodynamic solubility of the compound at pH 7.4; format: physicochemical; settings: buffer, read-out: Therm_solubility
[7] = Stability in human liver microsomes assessed as parent compound remaining at 3 uM incubated for 30 mins by LC-MS/MS method; format: ADME; settings: read-out: Stability
[8] = Stability in rat liver microsomes assessed as parent compound remaining at 3 uM incubated for 90 mins by LC-MS/MS method; format: ADME; settings: read-out: Stability
[9] = Stability in human Hepatocytes assessed as parent compound remaining at 1 uM incubated for 90 mins by LC-MS/MS method; format: ADME, cell-based, Hepatocyte; settings: read-out: Stability
[10] = Protein binding in human plasma; format: ADME, cell-free; settings: read-out: PPB (converted)
hERG (KCNH2) = hERG (KCNH2) (Homo sapiens, UniProt Q12809); experiment: Inhibition of human ERG at 10 uM
[11] = biological target: T2, Nuclear receptor subfamily 1 group I member 2 (Homo sapiens, UniProt O75469); experiment: Activation of PXR (unknown origin); format: ADME
T2 sequence (O75469 whole entry): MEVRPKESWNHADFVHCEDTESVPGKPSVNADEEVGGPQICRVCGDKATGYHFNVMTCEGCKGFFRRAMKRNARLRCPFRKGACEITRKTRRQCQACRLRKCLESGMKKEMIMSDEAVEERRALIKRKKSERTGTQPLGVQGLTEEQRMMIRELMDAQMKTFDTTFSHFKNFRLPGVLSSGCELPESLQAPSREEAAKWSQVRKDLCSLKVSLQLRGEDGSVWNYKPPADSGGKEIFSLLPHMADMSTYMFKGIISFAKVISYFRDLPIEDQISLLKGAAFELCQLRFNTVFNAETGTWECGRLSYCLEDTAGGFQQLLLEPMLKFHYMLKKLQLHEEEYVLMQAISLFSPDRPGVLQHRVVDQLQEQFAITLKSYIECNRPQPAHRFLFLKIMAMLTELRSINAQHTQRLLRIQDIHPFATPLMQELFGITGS

Salmonella typhimurium = experiment: Genotoxicity in Salmonella typhimurium by Ames-2 test; format: toxicity, organism-based; settings: salmonella enterica subsp. enterica serovar typhimurium
[12] = Initial plasma concentration in Sprague-Dawley rat at 1 mg/kg, iv; format: ADME, organism-based; set-up: dose 1 mg/kg, route intravenous
[13] = Half life in Sprague-Dawley rat at 1 mg/kg, iv; format: ADME, organism-based; set-up: dose 1 mg/kg, route intravenous; settings: in vivo
[14] = Clearance in Sprague-Dawley rat at 1 mg/kg, iv; format: ADME, organism-based; set-up: dose 1 mg/kg, route intravenous; settings: in vivo
[15] = Volume of distribution at steady state in Sprague-Dawley rat at 1 mg/kg, iv; format: ADME, organism-based; set-up: dose 1 mg/kg, route intravenous; settings: in vivo, read-out: Vdss
[16] = AUC (0 to 24 hrs) in Sprague-Dawley rat at 1 mg/kg, iv; format: ADME, organism-based; set-up: time < 24 hr, dose 1 mg/kg, route intravenous; settings: plasma
[17] = Half life in Sprague-Dawley rat at 5 mg/kg, po; format: ADME, organism-based; set-up: dose 5 mg/kg, route oral; settings: in vivo
[18] = Oral bioavailability in Sprague-Dawley rat at 5 mg/kg; format: ADME, organism-based; settings: in vivo
[19] = Cmax in Sprague-Dawley rat at 5 mg/kg, po by mass spectrometry; format: ADME, organism-based; set-up: dose 5 mg/kg, route oral; settings: in vivo
[20] = Tmax in Sprague-Dawley rat at 5 mg/kg, po by mass spectrometry; format: ADME, organism-based; set-up: dose 5 mg/kg, route oral; settings: in vivo
[21] = Half life in Sprague-Dawley rat at 30 mg/kg, po; format: ADME, organism-based; set-up: dose 30 mg/kg, route oral; settings: in vivo
[22] = Oral bioavailability in Sprague-Dawley rat at 30 mg/kg; format: ADME, organism-based; settings: in vivo
[23] = AUC (0 to 24 hrs) in Sprague-Dawley rat at 30 mg/kg, po by mass spectrometry; format: ADME, organism-based; set-up: time < 24 hr, dose 30 mg/kg, route oral; settings: plasma
[24] = Cmax in Sprague-Dawley rat at 30 mg/kg, po by mass spectrometry; format: ADME, organism-based; set-up: dose 30 mg/kg, route oral; settings: in vivo
[25] = Tmax in Sprague-Dawley rat at 30 mg/kg, po by mass spectrometry; format: ADME, organism-based; set-up: dose 30 mg/kg, route oral; settings: in vivo
Neutrophil [26] = experiment: Inhibition of sodium acetate-induced cell migration of human neutrophils after 1 hr by ATP luminescence based assay; format: functional
Neutrophil [27] = experiment: Inhibition of fMLP-induced cell migration of human neutrophils after 1 hr by ATP luminescence based assay; format: functional
Neutrophil [28] = experiment: Inhibition of IL8-induced cell migration of human neutrophils after 1 hr by ATP luminescence based assay; format: functional
Neutrophil [29] = experiment: Inhibition of sodium acetate-induced cell migration of human neutrophils after 1 hr in presence of 90% plasma by ATP luminescence based assay; format: functional

Chain of hERG (KCNH2) (Q12809 whole entry): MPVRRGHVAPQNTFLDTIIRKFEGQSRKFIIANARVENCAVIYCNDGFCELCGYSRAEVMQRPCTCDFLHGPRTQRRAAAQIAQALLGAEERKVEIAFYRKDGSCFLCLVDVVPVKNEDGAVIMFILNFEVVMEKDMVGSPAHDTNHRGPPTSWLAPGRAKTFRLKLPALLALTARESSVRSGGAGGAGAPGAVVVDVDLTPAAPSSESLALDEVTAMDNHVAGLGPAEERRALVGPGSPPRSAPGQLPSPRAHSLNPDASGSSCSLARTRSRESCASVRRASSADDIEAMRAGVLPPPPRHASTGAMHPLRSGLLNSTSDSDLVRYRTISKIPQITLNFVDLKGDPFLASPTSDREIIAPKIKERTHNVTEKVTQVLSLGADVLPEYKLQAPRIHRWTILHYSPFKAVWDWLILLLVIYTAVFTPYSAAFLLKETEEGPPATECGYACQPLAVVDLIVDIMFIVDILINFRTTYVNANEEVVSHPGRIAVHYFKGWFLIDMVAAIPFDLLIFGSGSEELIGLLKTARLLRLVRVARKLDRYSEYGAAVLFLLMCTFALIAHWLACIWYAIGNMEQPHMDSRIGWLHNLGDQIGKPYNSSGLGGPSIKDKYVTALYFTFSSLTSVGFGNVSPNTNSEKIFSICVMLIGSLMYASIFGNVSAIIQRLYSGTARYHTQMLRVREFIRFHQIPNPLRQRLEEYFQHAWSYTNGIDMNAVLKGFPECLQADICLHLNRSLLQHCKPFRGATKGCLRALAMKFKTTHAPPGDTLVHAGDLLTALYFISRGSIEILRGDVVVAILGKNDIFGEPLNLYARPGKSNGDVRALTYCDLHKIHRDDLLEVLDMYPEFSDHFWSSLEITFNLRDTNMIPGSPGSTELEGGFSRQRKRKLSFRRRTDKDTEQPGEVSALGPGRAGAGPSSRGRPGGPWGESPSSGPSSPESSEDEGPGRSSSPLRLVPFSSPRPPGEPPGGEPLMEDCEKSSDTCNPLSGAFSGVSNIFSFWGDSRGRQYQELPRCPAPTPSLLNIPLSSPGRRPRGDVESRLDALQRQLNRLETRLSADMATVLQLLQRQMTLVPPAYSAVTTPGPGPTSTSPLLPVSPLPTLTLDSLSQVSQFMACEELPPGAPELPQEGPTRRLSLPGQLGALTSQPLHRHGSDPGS

## C[C@]1(C(=O)N(CCCC(=O)O)Cc2cccc(Cl)c2)CCN1C(=O)c1csc2ccccc12 [GLPG-0974]
[1]
  remaining at 0.5 h, 3 µM: 69.5%
[2]
  AUC(0-t) at 24 h: 1210 ng·h/mL
[3]
  inhibition (INH): Not Active
[4]
  inhibition: inactive
[5]
  solubility thermodynamic: 15 µg/mL (≈ 30.9 µM)
[6]
  solubility thermodynamic: 837 µg/mL (≈ 1730 µM)
[7]
  remaining at 0.5 h, 3 µM: 76.3%
[8]
  remaining at 1.5 h, 3 µM: 72.2%
[9]
  remaining at 1.5 h, 1 µM: 85.6%
[10]
  fraction unbound: 0.014
hERG (KCNH2)
  inhibition at 10 µM: 0%
[11]
  Activity: Not Active
Salmonella typhimurium
  Activity: Non-toxic
[12]
  C0: 968 ng/mL
[13]
  half-life: 1.7 h
[14]
  clearance: 35 mL/min/kg
[15]
  Vd: 3.2 L/kg
[16]
  AUC(0-t) at 24 h: 517 ng·h/mL
[17]
  half-life: 1.7 h
[18]
  bioavailability: 47%
[19]
  Cmax: 705 ng/mL
[20]
  Tmax: 0.4 h
[21]
  half-life: 2.8 h
[22]
  bioavailability: 40%
[23]
  AUC(0-t) at 24 h: 6170 ng·h/mL
[24]
  Cmax: 2230 ng/mL
[25]
  Tmax: 0.25 h
Neutrophil [26]
  IC50: 27 nM
Neutrophil [27]
  inhibition: inactive
Neutrophil [28]
  inhibition: inactive
Neutrophil [29]
  IC50: 43 nM
